{"source": "paper PMC11651915", "about": "“Small molecule protein assembly modulators with pan-cancer therapeutic efficacy” (Open Biology, 2024)", "key": {"[1]": {"system": "COR-L105", "experiment": "Eurofins OncoPanel (CellTiter-Glo)", "format": "cell-based", "conditions": "Homo sapiens, 72 h, 3 days"}, "[2]": {"system": "A549/ATCC", "experiment": "cells", "format": "cell-based", "conditions": "Homo sapiens, NCI-60, 48 h"}, "[3]": {"system": "MDA MB 436", "experiment": "Eurofins OncoPanel (CellTiter-Glo)", "format": "cell-based", "conditions": "Homo sapiens, 72 h, 3 days"}, "[4]": {"system": "HCT-116", "experiment": "cells", "format": "cell-based", "conditions": "Homo sapiens, NCI-60, 48 h"}, "[5]": {"system": "HL-60(TB)", "experiment": "cells", "conditions": "Homo sapiens, HL-60, 48 h"}, "[6]": {"system": "MOLT-4", "experiment": "cells", "format": "cell-based", "conditions": "Homo sapiens, NCI-60, 48 h"}, "[7]": {"system": "A172", "experiment": "Eurofins OncoPanel (CellTiter-Glo)", "format": "cell-based", "conditions": "Homo sapiens, A 172, 72 h, 3 days"}, "[8]": {"system": "MCF7", "experiment": "Eurofins OncoPanel (CellTiter-Glo)", "format": "cell-based", "conditions": "Homo sapiens, 72 h, 3 days"}, "[9]": {"system": "NCI-H322M", "experiment": "cells", "conditions": "Homo sapiens, 48 h"}, "[10]": {"system": "MCF7", "experiment": "cells", "conditions": "Homo sapiens, MCF7, 48 h"}, "[11]": {"system": "T-47D", "experiment": "cells", "format": "cell-based", "conditions": "Homo sapiens, T47D, NCI-60, 48 h"}, "[12]": {"system": "MHH-PREB-1", "experiment": "Eurofins OncoPanel (CellTiter-Glo)", "conditions": "Homo sapiens, MHH-PREB-1, 72 h"}, "[13]": {"system": "ACHN", "experiment": "cells", "conditions": "Homo sapiens, 48 h"}, "[14]": {"system": "MDA-MB-435", "experiment": "cells", "format": "cell-based", "conditions": "Homo sapiens, NCI-60, 48 h"}, "[15]": {"system": "NCI/ADR-RES", "experiment": "cells", "conditions": "Homo sapiens, 48 h"}, "[16]": {"system": "MDA-MB-231/ATCC", "experiment": "cells", "conditions": "Homo sapiens, MDA-MB-231, 48 h"}, "[17]": {"system": "A549 and MRC-5 cells", "experiment": "Toxicity to A549 cancer line versus non-cancer MRC-5 cells", "format": "cell-based"}, "[18]": {"system": "SW1353", "experiment": "Eurofins OncoPanel (CellTiter-Glo)", "format": "cell-based", "conditions": "Homo sapiens, 72 h, 3 days"}, "[19]": {"system": "PANC-1", "experiment": "In-house cancer cell viability screen (AlamarBlue)", "format": "cell-based", "conditions": "Homo sapiens, 72 h"}, "[20]": {"system": "OVCAR-8", "experiment": "cells", "conditions": "Homo sapiens, OVCAR-8, 48 h"}, "[21]": {"system": "DU-145", "experiment": "cells", "conditions": "Homo sapiens, DU-145, 48 h"}, "[22]": {"system": "NCI-H522", "experiment": "cells", "conditions": "Homo sapiens, NCI-H522, 48 h"}, "[23]": {"system": "CCRF-CEM", "experiment": "cells", "format": "cell-based", "conditions": "Homo sapiens, NCI-60, 48 h"}}, "data": [{"compound": "CC(C)CCNc1ncnc2cc(N3CCN(c4ccc5c(NCCC(C)C)ncnc5c4)CC3)ccc12", "note": "[PAV-951]", "values": [{"measurement": "IC50", "setting": "[1]", "value": 962, "unit": "nM"}, {"measurement": "GI50", "setting": "[2]", "value": 302, "unit": "nM"}, {"measurement": "IC50", "setting": "[3]", "value": 1460, "unit": "nM"}, {"measurement": "GI50", "setting": "[4]", "value": 185, "unit": "nM"}, {"measurement": "GI50", "setting": "[5]", "value": 269, "unit": "nM"}, {"measurement": "GI50", "setting": "[6]", "value": 223, "unit": "nM"}, {"measurement": "IC50", "setting": "[7]", "value": 1020, "unit": "nM"}, {"measurement": "IC50", "setting": "[8]", "value": 1990, "unit": "nM"}, {"measurement": "GI50", "setting": "[9]", "value": 1200, "unit": "nM"}, {"measurement": "CC50", "setting": "[9]; read-out: LC50", "value": 5550, "unit": "nM"}, {"measurement": "GI50", "setting": "[10]", "value": 177, "unit": "nM"}, {"measurement": "CC50", "setting": "[10]; read-out: LC50", "value": 924, "unit": "nM"}, {"measurement": "GI50", "setting": "[11]", "value": 952, "unit": "nM"}, {"measurement": "IC50", "setting": "[12]", "value": 400, "unit": "nM"}, {"measurement": "GI50", "setting": "[13]", "value": 586, "unit": "nM"}, {"measurement": "CC50", "setting": "[13]; read-out: LC50", "value": 4280, "unit": "nM"}, {"measurement": "GI50", "setting": "[14]", "value": 273, "unit": "nM"}, {"measurement": "GI50", "setting": "[15]", "value": 401, "unit": "nM"}, {"measurement": "CC50", "setting": "[15]; read-out: LC50", "value": 4850, "unit": "nM"}, {"measurement": "GI50", "setting": "[16]", "value": 488, "unit": "nM"}, {"measurement": "CC50", "setting": "[16]; read-out: LC50", "value": 4420, "unit": "nM"}, {"measurement": "toxicity to A549 cancer line compared with non-cancer MRC-5 cells", "setting": "[17]", "value": "selectively toxic to the A549 cancer line"}, {"measurement": "IC50", "setting": "[18]", "value": 2210, "unit": "nM"}, {"measurement": "IC50", "setting": "[19]", "value": 244, "unit": "nM"}, {"measurement": "GI50", "setting": "[20]", "value": 521, "unit": "nM"}, {"measurement": "CC50", "setting": "[20]; read-out: LC50", "value": 5180, "unit": "nM"}, {"measurement": "GI50", "setting": "[21]", "value": 283, "unit": "nM"}, {"measurement": "CC50", "setting": "[21]; read-out: LC50", "value": 2830, "unit": "nM"}, {"measurement": "GI50", "setting": "[22]", "value": 1770, "unit": "nM"}, {"measurement": "CC50", "setting": "[22]; read-out: LC50", "value": 6950, "unit": "nM"}, {"measurement": "GI50", "setting": "[23]", "value": 198, "unit": "nM"}]}]}
